In US11369607B2, “Compositions, systems, and methods for generating inner ear hair cells for treatment of hearing loss” (Massachusetts Institute of Technology, priority 2014, dated 2022):
Entries after “also recorded” stand apart in the source; their conditions may differ.

Columns and labels:
[1] = system: Lgr5+ supporting cells isolated from the cochlea; experiment: Expansion of Lgr5-GFP inner ear progenitor cells in Matrigel based 3D culture; format: cell-based, mouse; conditions: for GFP+ cell number / GFP+ percentage: named factor removed from EFICVP6, 10 days
Protocol: Cell culture: Heterozygous Lgr5-EGFP-IRES-CreERT2 mice were obtained from Jackson Labs, and neonatal P2-P5 mice were used for cell isolation. Organ of Corti was isolated from Lgr5-GFP mice and further dissociated into single cells using trypsin. Cells were then cultured as previously described (Yin et al, 2014). Briefly, cells were entrapped in Matrigel and plated at the center of wells in a 24-well plate. Following polymerization of Matrigel, 500 μl of culture media (Advanced DMEM/F12 with N2 and B27) was added, containing growth factors including EGF (50 ng/ml) (epidermal growth factor), bFGF (20 ng/ml) (fibroblast growth factor), and IGF1 (50 ng/ml) (insulin-like growth factor 1), and small molecules including CHIR99021 (5 μM), valproic acid (1 mM), 2-phospho-L-ascorbic acid (280 μM), and 616452 (2 μM). Y-27632 (10 μM) was added for the first 2 days. In some experiments, bFGF was used at 50 ng/ml.
For single cell isolation, the organs of Corti were then treated with Cell Recovery Solution (Corning) for 1 h to separate cochlear epithelium from the underlying mesenchyme. Epithelia were then collected and treated with Trypsin (Life Technologies) for 15-20 minutes at 37° C. Single cells obtained by mechanical trituration were filtered by cell strainer (40 μm) and washed with cell culture media. For FACS sorting of Lgr5-high and Lgr5-Low cells, FACS ARIA (BD) was used and Lgr5-GFP was used as indicator of Lgr5 level. Sorted single cells were cultured in Matrigel in inner ear cell culture media with supplement growth factors and small molecules. Y-27632 was added in the first 2 days.
FACS analysis: Cell culture media was removed and Trypsin was added. After incubation at 37° C. for 10-20 min, colonies were dissociated into single cells. Live-cell number were counted using a hemocytometer and trypan blue staining. The cells were then stained with propidium iodide (PI) and analyzed with flow cytometry. The number of GFP-positive cells was calculated by multiplying the total number of cells by the percentage of GFP-positive cells.

[2] = system: expanded Lgr5-positive cells; experiment: Differentiation of expanded Lgr5-positive cells to hair cells; format: cell-based, mouse; conditions: in differentiation media
Protocol: Differentiation protocol: For differentiation of expanded Lgr5-positive cells, following 10 days of culture in the cell expansion condition (EFICVP6), the cell colonies were transferred to fresh Matrigel and further cultured in differentiation media. Differentiation media contains Notch pathway inhibitor (e.g. DAPT, D, 5 μM, or LY411575, LY, 5 μM), with or without Gsk3β inhibitor (e.g. CHIR99021). Media were changed every other day. Following another 6-10 days of incubation with differentiation media, the colonies were harvested for qPCR analysis or fixed with 4% PFA and immunostained with hair cell markers Myo7a and Prestin.
RNA extraction and quantitative real-time PCR (qPCR): RNA was isolated from cultured cells (RNeasy Mini Kit; Qiagen) according to the manufacturer's protocol. Quantitative real-time PCR was performed with QuantiTect Probe PCR kit (Qiagen) using commercially available primers and TaqMan probes (Myo7a and Hprt Life Technologies).
Immunocytochemistry staining: Colonies were fixed at room temperature in 4% paraformaldehyde/PBS for 15-20 min and then washed twice with PBS containing 0.1% BSA. Cells were then permeabilized with 0.25% Triton X-100 in PBS in 4° C. for 30 minutes. Following 2 washes with PBS containing 0.1% BSA, the cells were incubated with blocking solution (Power Block, Biogenex) for 1 h. Diluted primary antibodies (in Power Block solution) was applied for 4 h at room temperature or overnight at 4° C. Primary antibodies used were Myosin VIIA (1:500, Rabbit polyclonal from Proteus Biosciences) and Prestin (1:400, Goat polyclonal from Santa Cruz). After 3 washes for 5 minutes each, secondary antibodies (Alexafluor 594 and 647-conjugated; Invitrogen) were added at 1:500 dilution and incubated at room temperature for 30 minutes. Nuclei were visualized with 4,6-diamidino-2-phenylindole (DAPI, Vector Laboratories). Staining was visualized with inverted fluorescence microscope (EVOS; Advanced Microscopy Group).

[3] = Thermal gelation of poloxamer-407 formulations (visual tube inversion method); format: physicochemical
Protocol: Poloxamer-407 hydrogels were prepared using the “cold-method”. Briefly, a weighed amount of poloxamer-407 was added to 40 ml cold ultra pure water or cold PBS (pH 7.4), and stirred overnight at 4° C. on a magnetic stir plate to effect complete solubilization. Multiple concentrations of poloxamer-407 solution ranging from 18% (w/w) to 25% (w/w) were prepared. Hydrophilic drugs, including valproic acid (VPA) and phosphorylated ascorbic acid (PAC) were added to the 5 ml poloxamer-407 solution and dissolved at 4° C. on a magnetic stir plate. Weight ratio of poloxamer-407 to the drug was varied to understand the effects of drugs on the gelation properties of poloxamer-407, and to determine the optimal formulation that gels at 37° C. with maximum possible loading of the hydrophilic drugs. The gelation temperatures of the formulations were determined by the “visual tube inversion method”. Briefly, glass vials containing poloxamer 407 solutions, with or without the hydrophilic drugs were placed in a water bath.
To encapsulate hydrophobic drugs, including CHIR 99021 (CHIR), Repsox and TTNPB, appropriate volumes from their stock solutions in DMSO were added into the poloxamer-407 solutions containing the hydrophilic drugs, and mixed by pipetting at 4° C. […] Gelation temperature of the formulation was determined by the “visual tube inversion method”, as described before.

[4] = system: Atoh1-GFP inner ear epithelial cells; experiment: Spontaneous hair cell differentiation of cultured Atoh1-nGFP inner ear epithelial cells; format: cell-based, mouse
[5] = In vitro drug release from poloxamer-407 hydrogel (dialysis bag method); format: physicochemical; conditions: for initial burst release / cumulative release: pH 7.4, 37° C.; for cumulative release: in 48 h
Protocol: To understand the release kinetics of encapsulated drugs from poloxamer-407 hydrogels, in vitro release studies were performed using dialysis bag method at pH 7.4 and 37° C. temperature conditions. Briefly, sealed dialysis bag (3.5-5 kDa cutoff) containing 30 μL gel suspended in 1 ml PBS was placed in 10 mL of the release medium (PBS). The release medium was stirred at 100 rpm to prevent the formation of a stagnant layer at the membrane and outer solution interface. 1 mL aliquots were taken from the medium at predetermined intervals for the analysis of drugs using HPLC, and replaced with an equal volume of fresh medium.

[6] = factor removed from the culture medium
[7] = named factor removed, versus EFICVP6
[8] = neonatal Lgr5 inner ear progenitor cells

| concentration that inhibited gelation of poloxamer-407 solution [3] | initial burst release ([5]; in 2 h) | cumulative release [5] | initial burst release ([5]; in 0.5 h) | SMILES | importance of the factor for Lgr5-GFP expression [1, 6] | GFP+ cell number [1] | GFP+ percentage [1] | decrease of GFP+ cell number [1, 7] | decrease of GFP+ percentage [1, 7] | Lgr5-GFP expression, effect of addition [1, 8] | cell proliferation, effect of addition [1, 8] | effect on differentiation of hair cells [2] | importance of the factor for cell proliferation [1, 6] | decrease of total cell number [1, 7] | differentiation to Atoh-1+ cells [4] | spontaneous differentiation of hair cells ([4]; Atoh1-nGFP mouse line, 7 days) | release kinetics [5] |
| --- | --- | --- | --- | --- | --- | --- | --- | --- | --- | --- | --- | --- | --- | --- | --- | --- | --- |
| > 14000 µg/mL | – | – | – | O=C1O[C@H]([C@@H](O)CO)C(O)=C1OP(=O)(O)O [pVc, 2-phospho-L-ascorbic acid] | greater impact on GFP maintenance; also recorded: greatly reduced Lgr5 expression; also recorded: important to promote GFP maintenance | 1.1×10^5 cells | 25% | 2 fold | 2 fold | promoted GFP expression from Lgr5-GFP inner ear progenitor cells; also recorded: promotes GFP expression | increases cell proliferation of Lgr5 inner ear progenitor cells | inhibit the differentiation of hair cells | – | – | – | – | – |
| – | 10% | 33% | – | Cc1c[nH]c(-c2cnc(NCCNc3ccc(C#N)cn3)nc2-c2ccc(Cl)cc2Cl)n1 [CHIR, 6-[[2-[[4-(2,4-dichlorophenyl)-5-(5-methyl-1H-imidazol-2-yl)-2-pyrimidinyl]amino]ethyl]amino]-3-pyridinecarbonitrile] | critical for cell proliferation and GFP expression; also recorded: greatly impacted GFP expression; also recorded: greatest effect on Lgr5 expression; also recorded: important to promote cell proliferation and GFP expression | ~65 cells | 1.3% | ~4000 fold | ~50 fold | – | – | increases the differentiation efficiency of a Notch inhibitor | critical for cell proliferation and GFP expression; also recorded: greatly impacted cell proliferation; also recorded: greatest effect on proliferation; also recorded: important to promote cell proliferation and GFP expression | ~100 fold | can promote differentiation to Atoh-1+ cells | – | – |
| greater than 88 mg/ml | – | 98% | 17% | CCCC(CCC)C(=O)O [VPA, 2-propylpentanoic acid] | important for GFP expression; also recorded: greater impact on GFP maintenance; also recorded: greatly reduced Lgr5 expression; also recorded: important to promote GFP maintenance | – | 28% | 2 fold | 2 fold | – | – | inhibit the differentiation of hair cells | – | – | – | inhibited the differentiation of inner ear progenitor cells towards Atoh1 positive hair cells; also recorded: suppressed spontaneous differentiation of hair cells; also recorded: functions through suppressing differentiation | significantly faster as compared to that of CHIR |
